Experiments:
Assay type in all cases: biochemical
[1] = molecular target: T1, Hordeum HPPD variant L320Q (Hordeum vulgare, UniProt O48604, A164G/L320Q/R146V/R147D/R148G); assay: HPPD activity assay, Hordeum HPPD mutant L320Q; conditions: normalized on Hordeum wild-type HPPD
T1 construct: His (N); made in house; host or cells: E. coli BL21 (DE3)
Method: (§1) HPPD produces homogentisic acid and CO2 from 4-hydroxyphenylpyruvate (4-HPP) and O2. The activity assay for HPPD is based on the analysis of homogentisic acid by reversed phase HPLC.
(§2) The assay mixture can contain 150 mM potassium phosphate buffer pH 7.0, 50 mM L-ascorbic acid, 1 μM FeSO4 and 7 μg of purified enzyme in a total volume of 1 ml.
(§3) Inhibitors are dissolved in DMSO (dimethylsulfoxide) to a concentration of 20 mM or 0.5 mM, respectively. From this stock solution serial five-fold dilutions are prepared in DMSO, which are used in the assay. The respective inhibitor solution accounts for 1% of the assay volume. […] After a preincubation of 30 min the reaction is started by adding 4-HPP to a final concentration of 0.1 mM. The reaction is allowed to proceed for 120 min at room temperature. The reaction is stopped by addition of 100 μl of 4.5 M phosphoric acid.
(§4) Activities are normalized by setting the uninhibited enzyme activity to 100%. IC50 values are calculated using non-linear regression.
(§5) The assay mixture can contain 150 mM potassium phosphate buffer pH 7.0, 50 mM L-ascorbic acid, 100 μM Catalase (Sigma-Aldrich), 1 μM FeSO4 and 0.2 units of purified HPPD enzyme in a total volume of 505 μl. 1 unit is defined as the amount of enzyme that is required to produce 1 nmol of HGA per minute at 20° C.
(§6) Inhibitors are dissolved in DMSO (dimethylsulfoxide) to a concentration of 0.5 mM. From this stock solution serial five-fold dilutions are prepared in DMSO, which are used in the assay. The respective inhibitor solution accounts for 1% of the assay volume. […] Activities are normalized by setting the uninhibited enzyme activity to 100%. IC50 values are calculated using non-linear regression.
(§7) Purified, mutant HPPD enzymes are obtained by the methods described above. Dose response and kinetic measurements are carried out using the described HPPD activity assay. Apparent michaelis constants (Km) and maximal reaction velocities (Vmax) are calculated by non-linear regression with the software GraphPad Prism 5 (GraphPad Software, La Jolla, USA) using a substrate inhibition model.
(§8) Field performance of the optimized HPPD enzyme, which is used as a herbicide tolerance trait may depend not only on its lack of sensitivity towards HPPD inhibiting herbicides but also on its activity. To assess the potential performance of a herbicide tolerance trait a tolerance index (TI) is calculated using the following formula: […]
(§9) Easy comparison and ranking of each trait is enabled by normalizing tolerance indexes on Arabidopsis or Hordeum wild-type HPPD.

[2] = molecular target: T2, Hordeum HPPD variant G407C (Hordeum vulgare, UniProt O48604, A164G/G407C/R146V/R147D/R148G); assay: HPPD activity assay, Hordeum HPPD mutant G407C; conditions: normalized on Hordeum wild-type HPPD
T2 construct: His (N); made in house; host or cells: E. coli BL21 (DE3)
T2 sequence (O48604 whole entry R146V/R147D/R148G/A164G/G407C): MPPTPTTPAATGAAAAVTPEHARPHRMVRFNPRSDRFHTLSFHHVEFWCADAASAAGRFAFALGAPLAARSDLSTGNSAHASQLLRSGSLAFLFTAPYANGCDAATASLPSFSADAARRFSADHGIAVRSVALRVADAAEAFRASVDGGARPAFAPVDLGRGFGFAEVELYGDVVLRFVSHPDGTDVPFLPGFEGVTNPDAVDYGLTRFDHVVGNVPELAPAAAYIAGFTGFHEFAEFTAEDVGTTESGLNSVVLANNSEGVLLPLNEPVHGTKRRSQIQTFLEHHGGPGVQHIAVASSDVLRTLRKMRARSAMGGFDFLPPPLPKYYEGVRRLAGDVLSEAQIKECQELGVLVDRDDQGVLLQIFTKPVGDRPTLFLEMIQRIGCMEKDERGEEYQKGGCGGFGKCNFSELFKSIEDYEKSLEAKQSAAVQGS
Method: as §1, §2, §3, §4, §5, §6, §7, §8, §9

[3] = molecular target: T3, Hordeum HPPD variant L353M, P321R, L320N (Hordeum vulgare, UniProt O48604, L320N/L353M/P321R); assay: HPPD activity assay, Hordeum HPPD mutant L353M, P321R, L320N; conditions: normalized on Hordeum wild-type HPPD
T3 construct: His (N); made in house; host or cells: E. coli BL21 (DE3)
T3 sequence (O48604 whole entry R146V/R147D/R148G/A164G/L320N/P321R/L353M): as the sequence (O48604 whole entry R146V/R147D/R148G/A164G/G407C) above, with L320N, P321R, L353M, C407G counted along it
Method: as §1, §2, §3, §4, §5, §6, §7, §8, §9

[4] = molecular target: T4, Hordeum HPPD variant L320H, P321A (Hordeum vulgare, UniProt O48604, L320H/P321A); assay: HPPD activity assay, Hordeum HPPD mutant L320H, P321A; conditions: normalized on Hordeum wild-type HPPD
T4 construct: His (N); made in house; host or cells: E. coli BL21 (DE3)
T4 sequence (O48604 whole entry R146V/R147D/R148G/A164G/L320H/P321A): as the sequence (O48604 whole entry R146V/R147D/R148G/A164G/G407C) above, with L320H, P321A, C407G counted along it
Method: as §1, §2, §3, §4, §5, §6, §7, §8, §9

[5] = molecular target: T5, Arabidopsis HPPD (SEQ ID: 53) (Arabidopsis thaliana, UniProt P93836); assay: HPPD activity assay, Arabidopsis wild-type HPPD; set-up: key to Normalized tolerance index TI: tolerance index relative to Arabidopsis wild-type HPPD (= 1); conditions: for Normalized tolerance index TI: normalized on Arabidopsis wild-type HPPD; for tolerance index TI: not normalized
T5 construct: His6 (N); made in house; host or cells: E. coli BL21 (DE3)
T5 sequence (P93836 1-445): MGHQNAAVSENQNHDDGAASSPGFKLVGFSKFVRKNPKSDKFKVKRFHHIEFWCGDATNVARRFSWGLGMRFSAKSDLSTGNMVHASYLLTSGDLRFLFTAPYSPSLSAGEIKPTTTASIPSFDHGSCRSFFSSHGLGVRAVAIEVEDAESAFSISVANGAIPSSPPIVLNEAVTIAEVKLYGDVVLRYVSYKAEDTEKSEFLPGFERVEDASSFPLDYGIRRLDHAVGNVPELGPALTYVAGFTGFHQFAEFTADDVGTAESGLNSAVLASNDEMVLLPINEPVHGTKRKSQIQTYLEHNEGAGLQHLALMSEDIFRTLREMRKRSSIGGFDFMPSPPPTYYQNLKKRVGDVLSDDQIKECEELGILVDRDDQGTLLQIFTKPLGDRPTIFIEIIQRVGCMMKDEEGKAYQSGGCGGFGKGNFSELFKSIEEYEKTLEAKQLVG
Method: as §1, §2, §3, §4, §5, §6
Using methods which are described in the above examples or well known in the art, purified, recombinant wildtype HPPD enzymes are characterized with respect to their kinetic properties and sensitivity towards HPPD inhibiting herbicides. Apparent michaelis constants (Km) and maximal reaction velocities (Vmax) are calculated by non-linear regression with the software GraphPad Prism 5 (GraphPad Software, La Jolla, USA) using a substrate inhibition model.
as §8, with “of the HPPD enzyme,” for “of the optimized HPPD enzyme,”, “herbicide tolerance trait, may depend” for “herbicide tolerance trait may depend”
Easy comparison and ranking of each trait is enabled by normalizing tolerance indexes on Arabidopsis wild-type HPPD.

[6] = molecular target: T6, Hordeum HPPD variant L334E (Hordeum vulgare, UniProt O48604, A164G/L334E/R146V/R147D/R148G); assay: HPPD activity assay, Hordeum HPPD mutant L334E; conditions: normalized on Hordeum wild-type HPPD
T6 construct: His (N); made in house; host or cells: E. coli BL21 (DE3)
T6 sequence (O48604 whole entry R146V/R147D/R148G/A164G/L334E): as the sequence (O48604 whole entry R146V/R147D/R148G/A164G/G407C) above, with L334E, C407G counted along it
Method: as §1, §2, §3, §4, §5, §6, §7, §8, §9

[7] = molecular target: T7, Hordeum HPPD variant L353M, P321R, V212I (Hordeum vulgare, UniProt O48604, L353M/P321R/V212I); assay: HPPD activity assay, Hordeum HPPD mutant L353M, P321R, V212I; conditions: normalized on Hordeum wild-type HPPD
T7 construct: His (N); made in house; host or cells: E. coli BL21 (DE3)
T7 sequence (O48604 whole entry R146V/R147D/R148G/A164G/V212I/P321R/L353M): as the sequence (O48604 whole entry R146V/R147D/R148G/A164G/G407C) above, with V212I, P321R, L353M, C407G counted along it
Method: as §1, §2, §3, §4, §5, §6, §7, §8, §9

[8] = molecular target: T8, Hordeum HPPD variant L320N (Hordeum vulgare, UniProt O48604, A164G/L320N/R146V/R147D/R148G); assay: HPPD activity assay, Hordeum HPPD mutant L320N; conditions: normalized on Hordeum wild-type HPPD
T8 construct: His (N); made in house; host or cells: E. coli BL21 (DE3)
T8 sequence (O48604 whole entry R146V/R147D/R148G/A164G/L320N): as the sequence (O48604 whole entry R146V/R147D/R148G/A164G/G407C) above, with L320N, C407G counted along it
Method: as §1, §2, §3, §4, §5, §6, §7, §8, §9

[9] = Arabidopsis HPPD Wildtype, Table 15

T1 sequence (O48604 whole entry R146V/R147D/R148G/A164G/L320Q): as the sequence (O48604 whole entry R146V/R147D/R148G/A164G/G407C) above, with L320Q, C407G counted along it

| Structure (SMILES) | Normalized tolerance index TI [1] | Normalized tolerance index TI [2] | Normalized tolerance index TI [3] | Normalized tolerance index TI [4] | Ki [5] [nM] | Normalized tolerance index TI [5, 9] | Normalized tolerance index TI ([5]; Arabidopsis HPPD, Table 12) | tolerance index TI ([5]; Arabidopsis HPPD) | Normalized tolerance index TI [6] | Normalized tolerance index TI [7] | Normalized tolerance index TI [8] |
| --- | --- | --- | --- | --- | --- | --- | --- | --- | --- | --- | --- |
| CC1(C)c2cccnc2C(O)=C(c2ccc(Cl)nc2Cl)S1(=O)=O [Inhibitor 2, 7-(2,6-dichloro-3-pyridyl)-5,5-dimethyl-6,6-dioxo-thiopyrano[4,3-b]pyridin-8-ol] | 0.7 | 2 | 1.4 | 2.5 | 4.2 | 1 | 1 | 4E−3 | 1.4 | 1.5 | 1.7 |
| COCCOCc1c(Cl)ccc(C2=C(O)c3ncccc3C(C)(C)S2(=O)=O)c1Cl [Inhibitor 3, 7-[2,4-dichloro-3-(2-methoxyethoxymethyl)phenyl]-5,5-dimethyl-6,6-dioxo-thiopyrano[4,3-b]pyridin-8-ol] | 2.4 | 2.4 | 1.9 | 4.8 | – | 1 | 1 | – | 1.5 | 1.9 | 1.9 |
| CC1=NOC(c2c(Cl)ccc(C3=C(O)c4ncccc4C(C)(C)S3(=O)=O)c2Cl)C1 (stereo not shown) [Inhibitor 1, 7-[2,4-dichloro-3-(3-methyl-4,5-dihydroisoxazol-5-yl)phenyl]-5,5-dimethyl-6,6-dioxo-thiopyrano[4,3-b]pyridin-8-ol] | 2.1 | 2.7 | 2.1 | 5.2 | 4.1 | 1 | 1 | 4E−3 | 1.5 | 2.2 | 2 |
